The target of the assay is CXCR3 (Macaca fascicularis, UniProt A0A2K5UV19). Put plainly: functional cellular assay measuring calcium flux in CXCR3 transfected cells (block of CXCR3/IP-10 interaction). It counts as cell-based, Cyno. Particulars: IP-10 induced intracellular calcium flux; Cyno-CHO cells stably expressing recombinant CXCR3 and G-alpha-16; IP-10 at EC80; read-out: IC50. In a few lines: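 Inhibition of IP-10-induced calcium flux at 10 microM final compound, 15 min room-temperature preincubation, with IP-10 at EC80. Cells: CHO stably transfected with cynomolgus CXCR3 plus G-alpha-16, dye-loaded (Ca-4, 2 mM probenecid, HBSS/HEPES pH 7.4) 1 h at 37° C.; fluorescence ex 480/em 540 nm.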
Chain of CXCR3 (A0A2K5UV19 entry or part of it): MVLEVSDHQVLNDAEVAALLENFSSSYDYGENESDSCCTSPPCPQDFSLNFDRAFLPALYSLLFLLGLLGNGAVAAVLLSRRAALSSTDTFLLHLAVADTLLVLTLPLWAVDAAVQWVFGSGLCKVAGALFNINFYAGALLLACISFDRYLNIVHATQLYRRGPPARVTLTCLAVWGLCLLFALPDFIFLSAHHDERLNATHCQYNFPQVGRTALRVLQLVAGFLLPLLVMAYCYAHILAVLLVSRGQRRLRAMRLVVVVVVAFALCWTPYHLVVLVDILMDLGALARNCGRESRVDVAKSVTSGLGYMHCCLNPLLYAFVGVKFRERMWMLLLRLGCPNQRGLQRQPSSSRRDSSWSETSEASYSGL

In US8450317B2, “CXCR3 receptor antagonists” (Boehringer Ingelheim International GmbH, priority 2009, dated 2013) one finds IC50 data, which are given here for 14 molecules.

Take `COc1ccc(-c2ccccc2N2CCN(C(=O)Cn3ccc4cccnc43)CC2)cn1` [1-{4-[2-(6-Methoxy-pyridin-3-yl)-phenyl]-piperazin-1-yl}-2-pyrrolo[2,3-b]pyridin-1-yl-ethanone]: the IC50 came out at 34 nM. In the case of `O=C(Cn1ccc2cccnc21)N1CCN(c2c(F)cccc2-c2cnc(N3CCOCC3)nc2)CC1` [1-{4-[2-Fluoro-6-(2-morpholin-4-yl-pyrimidin-5-yl)-phenyl]-piperazin-1-yl}-2-pyrrolo[2,3-b]pyridin-1-yl-ethanone] it was 27 nM. With `CS(=O)(=O)c1ncc(-c2cc(Cl)ccc2N2CCN(C(=O)Cn3ccc4cccnc43)CC2)cn1` [1-{4-[4-Chloro-2-(2-methanesulfonyl-pyrimidin-5-yl)-phenyl]-piperazin-1-yl}-2-pyrrolo[2,3-b]pyridin-1-yl-ethanone], the IC50 worked out at 24 nM. In the case of `COc1ncc(-c2cc(Cl)ccc2N2CCN(C(=O)Cn3nc(C)cc3C)CC2)cn1` [1-{4-[4-Chloro-2-(2-methoxy-pyrimidin-5-yl)-phenyl]-piperazin-1-yl}-2-(3,5-dimethyl-pyrazol-1-yl)-ethanone] it was 12 nM; in that of `COc1ncc(-c2cc(Cl)ccc2N2CCN(C(=O)Cn3ccc4cccnc43)CC2)cn1` [1-{4-[4-Chloro-2-(2-methoxy-pyrimidin-5-yl)-phenyl]-piperazin-1-yl}-2-pyrrolo[2,3-b]pyridin-1-yl-ethanone], 7 nM; in that of `CNc1ncc(-c2cc(Cl)ccc2N2CCN(C(=O)Cn3nc(C)cc3C)CC2)cn1` [1-{4-[4-Chloro-2-(2-methylamino-pyrimidin-5-yl)-phenyl]-piperazin-1-yl}-2-(3,5-dimethyl-pyrazol-1-yl)-ethanone], 13 nM. Consider `CNc1ncc(-c2cc(Cl)ccc2N2CCN(C(=O)Cn3ccc4cccnc43)CC2)cn1` [1-{4-[4-Chloro-2-(2-methylamino-pyrimidin-5-yl)-phenyl]-piperazin-1-yl}-2-pyrrolo[2,3-b]pyridin-1-yl-ethanone], for which the IC50 is 6 nM. As for `CSc1ncc(-c2cc(Cl)ccc2N2CCN(C(=O)Cn3nc(C)cc3C)CC2)cn1` [1-{4-[4-Chloro-2-(2-methylsulfanyl-pyrimidin-5-yl)-phenyl]-piperazin-1-yl}-2-(3,5-dimethyl-pyrazol-1-yl)-ethanone], the IC50 was 7 nM. In the case of `CSc1ncc(-c2cc(Cl)ccc2N2CCN(C(=O)Cn3ccc4cccnc43)CC2)cn1` [1-{4-[4-Chloro-2-(2-methylsulfanyl-pyrimidin-5-yl)-phenyl]-piperazin-1-yl}-2-pyrrolo[2,3-b]pyridin-1-yl-ethanone] it was 8 nM; in that of `Cc1cc(C)n(CC(=O)N2CCN(c3ccc(Cl)cc3-c3cnc(N4CCOCC4)nc3)CC2)n1` [1-{4-[4-Chloro-2-(2-morpholin-4-yl-pyrimidin-5-yl)-phenyl]-piperazin-1-yl}-2-(3,5-dimethyl-pyrazol-1-yl)-ethanone], 11 nM. In the case of `O=C(Cn1ccc2cccnc21)N1CCN(c2ccc(Cl)cc2-c2cnc(N3CCOCC3)nc2)CC1` [1-{4-[4-Chloro-2-(2-morpholin-4-yl-pyrimidin-5-yl)-phenyl]-piperazin-1-yl}-2-pyrrolo[2,3-b]pyridin-1-yl-ethanone] it was 13 nM; in that of `COc1ccc(N2CCN(C(=O)Cn3ccc4cccnc43)CC2)c(-c2cnc(N3CCOCC3)nc2)c1` [1-{4-[4-Methoxy-2-(2-morpholin-4-yl-pyrimidin-5-yl)-phenyl]-piperazin-1-yl}-2-pyrrolo[2,3-b]pyridin-1-yl-ethanone], 9 nM; in that of `COc1ncc(-c2cc(F)ccc2N2CCN(C(=O)Cn3ccc4cccnc43)CC2)cn1` [1-{4-[4-fluoro-2-(2-methoxypyrimidin-5-yl)phenyl]piperazin-1-yl}-2-(1H-pyrrolo[2,3-b]pyridin-1-yl)ethanone], 11 nM.

On to `COc1ncc(-c2cc(F)ccc2N2CCN(C(=O)Cn3ccc4ccncc43)CC2)cn1` [1-{4-[4-fluoro-2-(2-methoxypyrimidin-5-yl)phenyl]piperazin-1-yl}-2-(1H-pyrrolo[2,3-c]pyridin-1-yl)ethanone], for which the IC50 stood at 13 nM.

Broadly, the IC50 is the point on the concentration scale where inhibition reaches its midpoint.
